What was measured:
Caco-2 tubules [1] = assay: Loss of barrier function of gut tubule (Caco-2) exposed to aspirin (TRITC-dextran 150 kDa); type: cell-based, human; settings: for loss of barrier integrity: imaged every hour for 24 hours
Source text: FIG. 11 depicts the loss of barrier function of a gut tubule exposed to aspirin. […] However, the lack of data on concentrations with a maximum response hinders accurate EC50 estimation.

Caco-2 tubules [2] = assay: Time-to-leak barrier integrity assay, human gut tubule (Caco-2) exposed to staurosporin (TRITC-dextran 150 kDa); settings: Caco-2 tubes; imaged every hour for 13 hours; normalized TRITC-dextran fluorescence
Protocol: The Caco-2 cell line (Sigma, human colon carcinoma cells) was seeded in a 400 μm 3 lane OrganoPlate® at 10E6 cells/mL, placed on side for cell-ECM attachment for 2 hours, and then placed on a modified rocker platform for continuous medium perfusion. Three days after seeding leak-tightness of the Caco-2 tubules was tested by replacing the medium in the top perfusion channel with medium containing 0.25 mg/mL TRITC dextran 150 kDa. […] Medium in the top medium channel was replaced with medium with TRITC-dextran and increasing concentrations of aspirin. Plate was placed in the ImageXpress Micro XLS under temperature and CO2 controlled conditions and imaged for fluorescent (TRITC) signal every hour for 13 hours. A dose response curve can be extracted at every time point from the time-lapse of the exposed Caco-2 tubes. GraphPad Prism 6 (GraphPad Software Inc., La Jolla, Calif.) was used to fit the dose response curve based on nonlinear regression of the logarithm of the compound concentration versus the normalized fluorescence assuming a top and bottom plateau at 0 and 100% fluorescence.

MDCK tubules [3] = assay: Barrier integrity assay, MDCK tubules with staurosporin exposure (FITC-dextran 150 kDa leakage); type: cell-based, canine; settings: 0, 1, 4, 7 or 10 μM in top perfusion channel, imaged every hour for 15 hours
Protocol: MDCK (canine) cell line was seeded at 10*10^6 cells/mL in the top perfusion channel of a 400 μm 3-lane OrganoPlate® against a collagen I ECM (Cultrex, Amsbio, 3447-020-01, 4 mg/mL). 60 μL of medium was added to the medium inlet and outlet of the top perfusion channel. Plate was incubated on its side for 3 hours to allow cells to settle on top of the ECM. Three hours after seeding 60 μL medium was added to the medium inlet and outlet of the bottom perfusion channel and plate was placed on a rocker platform for continuous medium perfusion (angle 7°, tilt every 8 min). […] Volumes were 40 μL inlet/30 μL outlet in top perfusion channel, 0 μL inlet/0 μL outlet in the middle ECM channel, 20 μL inlet/20 μL outlet standard culture medium in the bottom perfusion channel. […]
Fluorescent signal intensity of the FITC-dextran 150 kDa was quantified in the top perfusion channel and in the gel channel of FIG. 4 using FIJI analysis software (Schindelin, J.; Arganda-Carreras, I. & Frise, E. et al. (2012), “Fiji: an open-source platform for biological-image analysis”, Nature methods 9(7): 676-682, PMID 22743772). […] The time-to-leakage value (e.g. 2 hours after compound addition) will have to be determined based on validation experiments to ensure maximal in vivo relevance. […]

LLC-PK1 tubules = assay: Barrier integrity assay, LLC-PK1 tubules with staurosporin exposure (FITC-dextran 150 kDa leakage); type: cell-based, pig; settings: 0, 1, 5 or 10 μM in top perfusion channel, imaged every 15 min for 16 hours
Protocol: The integrity of a cellular barrier, cultivated for example as described in FIGS. 1 and 2, can be probed by replacing the medium in the perfusion channel by medium containing 500 μg/mL FITC-dextran 150 kDa (Sigma, 46946). A) If the cellular barrier is leak-tight the fluorescent signal will be contained in the perfusion channel, whereas in the microfluidic chip with no cells, just ECM in the gel channel, the fluorescent signal will enter the ECM and will saturate within minutes. The fluorescent signal in the perfusion and gel channel can be monitored real time using time-lapse fluorescent microscopy, as for example with the ImageXpress Micro (Molecular Devices). B) Fluorescent signal intensity of the FITC-dextran 150 kDa was quantified in the top perfusion channel and in the gel channel using FIJI analysis software (Schindelin, J.; Arganda-Carreras, I. & Frise, E. et al. (2012), “Fiji: an open-source platform for biological-image analysis”, Nature methods 9(7): 676-682, PMID 22743772). C) The intensity of the gel channel was divided by the intensity of the top perfusion channel and the ratio was plotted against the time after start of fluorescent reporter addition. Without a cellular barrier the ECM is saturated within minutes after dye addition whereas a ratio close to zero is maintained as long as the cellular barrier is intact. […]

[4] = tested on: human proximal tubule cells (RPTEC); assay: Drug induced loss of barrier integrity of human kidney proximal tubule (RPTEC), Kaplan-Meier plot; type: cell-based; settings: RPTEC tubules; increasing concentrations; imaged every hour for 60 hours; versus medium, vehicle control 1 and 2
Source text: After eight days in culture >95% of the seeded tubules were shown leak-tight by addition of FITC-dextran 150 kDa to the medium in the luminal compartment. Medium in the tubes was replaced with medium containing increasing concentrations of the renal toxicant amphotecerin B and the fluorescent FITC-dextran. […] IC indicates an inhibitor cocktail of 3 efflux transporter inhibitors.

MDCK tubules [5] = type: cell-based, canine
Source text: The 3 lane OrganoPlate® offers the unique possibility to add a compound from only the apical or the basolateral side of the tubular structure. […] Actively transported compounds can have directionality in the trans-cellular transport, as is for example the situation in the renal proximal tubules, where moving compounds specifically from the apical side of the tube to the basolateral side, or the other way around, is part of the renal filtering function. This implies toxic compounds that are actively transported by the proximal tubule cells can have a different effect depending on the location of exposure. The anti-cancer drug cisplatin is taken up by cells by the OCT-2 transporter that is expressed on the basal side of the epithelial monolayer. MDCK cells were seeded in the top channel of a 200 μm 3 lane OrganoPlate® against a collagen I ECM at 10E6 cells/mL. Three days after seeding MDCK tubules were exposed to increasing concentrations of cisplatin from either the apical or basal side by replacing the medium either in the top medium channel, or in the bottom medium channel, with medium with cisplatin. At the start of the exposure the medium in the top channel was also supplied with a fluorescent leakage marker, FITC-dextran 150 kDa.

Compound: CC(=O)Oc1ccccc1C(=O)O [aspirin]
- loss of barrier integrity (Caco-2 tubules [1]; 3.7 mM): loss of barrier integrity
- exposure time at which a 50% effect was observed (Caco-2 tubules [1]; 12 mM): 20 h
- loss of barrier integrity (Caco-2 tubules [1]; 12 mM (12.12 mM)): clear loss of barrier integrity
- exposure time at which a 50% effect was observed (Caco-2 tubules [1]; 40 mM): 10 h
- loss of barrier integrity (Caco-2 tubules [1]; 40 mM): clear loss of barrier integrity

Compound: CN[C@@H]1C[C@H]2O[C@@](C)([C@@H]1OC)n1c3ccccc3c3c4c(c5c6ccccc6n2c5c31)C(=O)NC4 [staurosporin]
- dose response curve of barrier leakage with increasing exposure times (Caco-2 tubules [2]): shift towards lower compound concentrations
- integrity of the MDCK barrier with increasing concentrations (MDCK tubules [3]): breaks at an earlier time point
- integrity of the LLC-PK1 barrier with increasing concentrations (LLC-PK1 tubules): breaks at an earlier time point

Compound: amphotecerin B
- survival of tube integrity, exposed versus unexposed tubes [4]: significant difference

Compound: N.N.[Cl][Pt][Cl] [cisplatin]
- time-to-leak, tubes exposed from the basal side versus apical exposed tubes (MDCK tubules [5]): significantly earlier

Source: US11662342B2, “Barrier function measurements” (MIMETAS B.V., priority 2015, dated 2023)
